Source: ChEMBL document CHEMBL1201861, “Genomics of Drug Sensitity in Cancer screening data, Wellcome Trust Sanger Institute”

Assays:
Assay in all cases: cells
P31-FUJ = type: functional, cell-based, Homo sapiens; settings: Homo sapiens, P31-FUJ;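 note: growth inhibition of P31-FUJ cells, read out with a viability assay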
MZ7-mel = type: functional, cell-based, Homo sapiens; settings: Homo sapiens, MZ7-mel;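 note: growth inhibition of human MZ7-mel cells, measured by a cell viability assay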
KY821 = type: functional, cell-based, Homo sapiens; settings: Homo sapiens, KY821;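 note: growth inhibition of human KY821 cells, read out by a cell viability assay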
HDLM-2 = type: functional, cell-based, Homo sapiens; settings: Homo sapiens, HDLM-2;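 note: cell viability assay measuring suppression of HDLM-2 proliferation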
D-502MG = type: functional, cell-based, Homo sapiens; settings: Homo sapiens, D-502MG
SH-4 = type: functional, cell-based; settings: Homo sapiens;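 note: growth inhibition of SH-4 cells, read out with a cell viability assay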
KURAMOCHI = type: functional, cell-based, Homo sapiens; settings: Homo sapiens, KURAMOCHI;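 note: growth inhibition of KURAMOCHI cells, read out with a cell viability assay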
HCE-T = type: functional, cell-based, Homo sapiens; settings: Homo sapiens, HCE-T;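 note: cell viability assay read-out, reporting inhibition of HCE-T cell growth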
GI-1 = type: functional, cell-based, Homo sapiens; settings: Homo sapiens, GI-1;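 note: growth inhibition of human GI-1 cells, measured with a cell viability readout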
COLO-668 = type: functional, cell-based, Homo sapiens; settings: Homo sapiens, COLO-668
OVCAR-4 = type: functional, cell-based, Homo sapiens; settings: Homo sapiens, OVCAR-4;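 note: growth inhibition of human OVCAR-4 cells, measured with a cell viability assay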
Ramos-2G6-4C10 = type: functional, cell-based, Homo sapiens; settings: Homo sapiens, Ramos-2G6-4C10;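 note: growth inhibition of the cell line, measured by a cell viability read-out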
KGN = type: functional, cell-based, Homo sapiens; settings: Homo sapiens, KGN;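 note: growth inhibition of KGN cells, read out with a cell viability assay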
COLO-800 = type: functional, cell-based, Homo sapiens; settings: Homo sapiens, COLO-800;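 note: growth inhibition of COLO-800 cells, read out with a cell viability assay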
KG-1 = type: functional, cell-based, Homo sapiens; settings: Homo sapiens, KG-1;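 note: growth inhibition of KG-1 cells, read out by a cell viability assay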
MMAC-SF = type: functional, cell-based; settings: Homo sapiens;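 note: growth inhibition of human MMAC-SF cells, read out with a cell viability assay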
QIMR-WIL = type: functional, cell-based, Homo sapiens; settings: Homo sapiens, QIMR-WIL;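 note: growth inhibition of QIMR-WIL cells, read out with a cell viability assay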
EM-2 = type: functional, cell-based, Homo sapiens; settings: Homo sapiens, EM-2;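 note: growth inhibition of EM-2 cells, read out with a cell viability assay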
J-RT3-T3-5 = type: functional, cell-based, Homo sapiens; settings: Homo sapiens, J-RT3-T3-5;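 note: cell viability assay measuring growth inhibition of human J-RT3-T3-5 cells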
OCUB-M = type: functional, cell-based; settings: Homo sapiens;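 note: growth inhibition of the cancer cell line, read out through a cell viability assay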
SNB-75 = type: functional, cell-based, Homo sapiens; settings: Homo sapiens, SNB-75;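 note: cell viability assay measuring growth inhibition of human SNB-75 cells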
U-266 = type: functional, cell-based, Homo sapiens; settings: Homo sapiens, U-266
GI-ME-N = type: functional, cell-based, Homo sapiens; settings: Homo sapiens, GI-ME-N;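 note: growth inhibition of human GI-ME-N cells, read out with a cell viability assay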
no-11 = type: functional, cell-based, Homo sapiens; settings: Homo sapiens;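 note: growth inhibition of human NO-11 cells, read out with a cell viability assay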
EW-18 = type: functional, cell-based, Homo sapiens; settings: Homo sapiens, EW-18;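 note: growth inhibition of EW-18 cells, read out by a cell viability assay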
SW 962 = type: functional, cell-based, Homo sapiens; settings: Homo sapiens, SW 962;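 note: growth inhibition of human SW962 cells, read out by a cell viability assay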
KU812 cell line = type: functional, cell-based, Homo sapiens; settings: Homo sapiens, KU812;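 note: growth inhibition of KU812 cells, read out with a cell viability assay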
IST-SL1 = type: functional, cell-based, Homo sapiens; settings: Homo sapiens, IST-SL1;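 note: growth inhibition of human IST-SL1 cells, read out with a cell viability assay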
NB5 = type: functional, cell-based, Homo sapiens; settings: Homo sapiens, NB5;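 note: growth inhibition of NB5 cells, read out as cell viability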
NTERA-2-cl-D1 = type: functional, cell-based, Homo sapiens; settings: Homo sapiens, NTERA-2-cl-D1;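 note: inhibition of cell growth, measured with a cell viability assay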
LB2518-MEL = type: functional, cell-based; settings: Homo sapiens;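 note: growth inhibition of human LB2518-MEL cells, measured with a cell viability assay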
NCI-H226 = type: functional, cell-based, Homo sapiens; settings: Homo sapiens, NCI-H226;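 note: cell viability read-out used to gauge growth inhibition of the cells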
UACC-257 = type: functional, cell-based, Homo sapiens; settings: Homo sapiens, UACC-257
HCC1187 = type: functional, cell-based, Homo sapiens; settings: Homo sapiens, HCC1187;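 note: growth inhibition of HCC1187 cells, read out with a cell viability assay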
ETK-1 = type: functional, cell-based, Homo sapiens; settings: Homo sapiens, ETK-1;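 note: growth inhibition of human ETK-1 cells, read out with a cell viability assay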
MS-1 = type: functional, cell-based, Homo sapiens; settings: Homo sapiens, MS-1;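 note: growth inhibition of MS-1 cells, read out by cell viability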
MN-60 = type: functional, cell-based, Homo sapiens; settings: Homo sapiens, MN-60;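 note: growth inhibition of the MN-60 cell line, determined with a cell viability assay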
COR-L88 = type: functional, cell-based, Homo sapiens; settings: Homo sapiens, COR-L88;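 note: growth inhibition of COR-L88 cells, read out with a cell viability assay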
CTV-1 = type: functional, cell-based, Homo sapiens; settings: Homo sapiens, CTV-1;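 note: growth inhibition of the cell line, read out with a cell viability assay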
LXF-289 cell line = type: functional, cell-based; settings: Homo sapiens
RXF 393 = type: functional, cell-based, Homo sapiens; settings: Homo sapiens, RXF 393;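 note: growth inhibition of human RXF 393 cells, read out with a cell viability assay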
OCI-AML2 = type: functional, cell-based, Homo sapiens; settings: Homo sapiens, OCI-AML2;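 note: growth inhibition of OCI-AML2 cells, read out with a cell viability assay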
KM12 = type: functional, cell-based, Homo sapiens; settings: Homo sapiens, KM12;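 note: KM12 cell growth inhibition, read out with a cell viability assay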
NCI-H1355 = type: functional, cell-based, Homo sapiens; settings: Homo sapiens, NCI-H1355;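 note: growth inhibition of human NCI-H1355 cells, read out by a cell viability assay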
A4-Fuk = type: functional, cell-based, Homo sapiens; settings: Homo sapiens, A4-Fuk;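 note: growth inhibition of A4-Fuk cells, read out by a cell viability assay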
HCE-4 = type: functional, cell-based; settings: Homo sapiens;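 note: cell viability assay measuring inhibition of growth in the human HCE-4 cell line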
SNU-C2B = type: functional, cell-based; settings: Homo sapiens;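 note: cell viability readout used to measure compound-driven suppression of SNU-C2B cell proliferation, IC50 marking half-maximal growth inhibition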
IA-LM = type: functional, cell-based; settings: Homo sapiens;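 note: cell viability assay measuring growth inhibition of human IA-LM cells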
KLE = type: functional, cell-based; settings: Homo sapiens;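 note: growth inhibition of human KLE cells, read out with a cell viability assay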
GAK = type: functional, cell-based, Homo sapiens; settings: Homo sapiens, GAK;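 note: cell growth inhibition read out by a cell viability assay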
NCI-N87 = type: functional, cell-based; settings: Homo sapiens;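 note: growth inhibition of human NCI-N87 cells, read out with a cell viability assay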
PC-3 = type: functional, cell-based; settings: Homo sapiens;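 note: cell viability assay measuring growth inhibition of PC-3 cells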

Measured: IC50

Nc1ccccc1NC(=O)c1ccc(CNC(=O)OCc2cccnc2)cc1 [ENTINOSTAT]
683 nM: QIMR-WIL
2930 nM: GI-1
2120 nM: NCI-H1355
4060 nM: GI-ME-N
1650 nM: KM12
1680 nM: HDLM-2
933 nM: LB2518-MEL
439 nM: Ramos-2G6-4C10
4110 nM: MN-60
561 nM: MZ7-mel
1620 nM: KG-1
1210 nM: OCUB-M
4900 nM: HCC1187
> 5000 nM: P31-FUJ | KY821 | D-502MG | COLO-668 | COLO-800 | MMAC-SF | SNB-75 | no-11 | EW-18; read-out: IC50 | SW 962 | NCI-H226 | MS-1 | RXF 393
959 nM: LXF-289 cell line
2770 nM: KGN
3630 nM: OCI-AML2
1770 nM: KURAMOCHI
1790 nM: ETK-1
2850 nM: U-266
773 nM: IST-SL1
337 nM: J-RT3-T3-5
1700 nM: KU812 cell line
230 nM: COR-L88
872 nM: HCE-T
201 nM: NTERA-2-cl-D1
3440 nM: UACC-257
241 nM: EM-2
1150 nM: A4-Fuk
1660 nM: NB5
1130 nM: OVCAR-4
1270 nM: CTV-1
1020 nM: SH-4

NC(=O)c1ccc(N(C(N)=O)c2c(F)cccc2F)nc1-c1ccc(F)cc1F [VX-702]
396 nM: KY821
747 nM: EW-18; read-out: IC50
184 nM: CTV-1
125 nM: KU812 cell line
1200 nM: UACC-257
335 nM: COR-L88
> 2000 nM: MZ7-mel | HDLM-2 | D-502MG | SH-4 | KURAMOCHI | HCE-T | GI-1 | HCE-4 | COLO-668 | OVCAR-4 | Ramos-2G6-4C10 | KGN | COLO-800 | KG-1 | MMAC-SF | NCI-N87 | QIMR-WIL | EM-2 | J-RT3-T3-5 | OCUB-M | SNU-C2B | SNB-75 | U-266 | GI-ME-N | no-11 | SW 962 | IA-LM | IST-SL1 | NB5 | NTERA-2-cl-D1 | KLE | LB2518-MEL | NCI-H226 | HCC1187 | ETK-1 | MS-1 | MN-60 | GAK | PC-3 | LXF-289 cell line | RXF 393 | OCI-AML2 | KM12 | NCI-H1355 | A4-Fuk
